From ChEMBL document CHEMBL1136698, “Peptoid mimics of agouti related protein” (Bioorg Med Chem Lett, 2003)

Assays:
Melanocortin receptor 4 [1] = target: T1, Melanocortin receptor 4 (Homo sapiens, UniProt P32245); assay: Binding affinity against human melanocortin 4 receptor (hMC4R) using [125I]- agouti related protein (AGRP) as radioligand
Melanocortin receptor 4 [2] = target: T1, Melanocortin receptor 4; assay: Binding affinity against human melanocortin 4 receptor (hMC4R) using [125I]- ([Nle4]alpha-MSH) as radioligand
Melanocortin receptor 4 [3] = target: T1, Melanocortin receptor 4; assay: Binding affinity against human melanocortin 4 receptor (hMC4R) using [125I]- ([Nle4]alpha-MSH) as radioligand; NA: Not active
Melanocortin receptor 4 [4] = target: T1, Melanocortin receptor 4; assay: Binding affinity against human melanocortin 4 receptor (hMC4R) using [125I]- agouti related protein (AGRP) as radioligand; NA: Not active
Melanocortin receptor 4 [5] = target: T1, Melanocortin receptor 4; assay: Binding affinity against human melanocortin 4 receptor (hMC4R) using [125I]- NDP-MSH as radioligand
Melanocortin receptor 3 [6] = target: T2, Melanocortin receptor 3 (Homo sapiens, UniProt P41968); assay: Inhibitory activity against hMC3R (human melanocortin receptor) using [125I]-[Nle4] alpha-MSH as radioligand
Melanocortin receptor 4 [7] = target: T1, Melanocortin receptor 4; assay: Inhibitory activity against hMC4R (human melanocortin receptor) using [125I]-[Nle4] alpha-MSH as radioligand
Melanocortin receptor 4 [8] = target: T1, Melanocortin receptor 4; assay: Inhibitory activity against hMC4R (human melanocortin receptor) using I-AGRP as radioligand
[9] = target: T3, Melanocyte-stimulating hormone receptor (Homo sapiens, UniProt Q01726); assay: Inhibitory activity against hMC1R (human melanocortin receptor) using [125I]- ASIP Y radioligand
[10] = target: T3, Melanocyte-stimulating hormone receptor; assay: Inhibitory activity against hMC1R (human melanocortin receptor) using [125I]-[Nle4] alpha-MSH as radioligand
Melanocortin receptor 3 [11] = target: T2, Melanocortin receptor 3; assay: Inhibitory activity against hMC3R (human melanocortin receptor) using I-AGRP as radioligand

T1 sequence (P32245 whole entry): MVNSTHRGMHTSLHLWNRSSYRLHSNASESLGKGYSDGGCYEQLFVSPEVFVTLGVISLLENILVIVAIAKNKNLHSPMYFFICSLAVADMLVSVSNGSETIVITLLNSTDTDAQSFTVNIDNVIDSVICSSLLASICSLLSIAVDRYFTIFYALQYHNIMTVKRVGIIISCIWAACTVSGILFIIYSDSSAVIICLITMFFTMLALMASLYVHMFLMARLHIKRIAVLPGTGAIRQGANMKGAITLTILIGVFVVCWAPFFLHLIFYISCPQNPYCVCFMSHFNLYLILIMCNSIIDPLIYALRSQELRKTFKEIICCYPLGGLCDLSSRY
T3 sequence (Q01726 whole entry): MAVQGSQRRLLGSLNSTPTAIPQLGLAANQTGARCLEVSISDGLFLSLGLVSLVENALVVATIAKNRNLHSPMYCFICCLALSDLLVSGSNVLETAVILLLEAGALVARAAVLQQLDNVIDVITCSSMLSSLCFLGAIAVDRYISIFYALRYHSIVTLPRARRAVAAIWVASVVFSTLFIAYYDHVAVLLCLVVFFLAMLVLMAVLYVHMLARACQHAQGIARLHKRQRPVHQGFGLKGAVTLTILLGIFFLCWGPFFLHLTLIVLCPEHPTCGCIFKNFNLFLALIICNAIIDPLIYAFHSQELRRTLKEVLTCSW
T2 sequence (P41968 whole entry): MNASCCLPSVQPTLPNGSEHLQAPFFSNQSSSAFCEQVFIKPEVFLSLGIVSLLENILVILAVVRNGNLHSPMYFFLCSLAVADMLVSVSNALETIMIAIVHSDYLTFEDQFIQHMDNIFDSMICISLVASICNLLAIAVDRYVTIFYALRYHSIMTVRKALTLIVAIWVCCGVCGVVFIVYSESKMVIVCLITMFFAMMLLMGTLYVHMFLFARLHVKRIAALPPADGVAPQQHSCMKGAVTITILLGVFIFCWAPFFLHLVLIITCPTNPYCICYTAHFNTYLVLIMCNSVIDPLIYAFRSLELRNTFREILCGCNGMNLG

Structure (SMILES): C[C@H](c1ccccc1)N(CC(N)=O)C(=O)CN(Cc1ccccc1)C(=O)CNCCCN=C(N)N
- IC50 (Melanocortin receptor 4 [1]): > 100 µM
- IC50 (Melanocortin receptor 4 [2]): > 100 µM

Structure (SMILES): C[C@@H](c1ccccc1)N(CC(N)=O)C(=O)CN(Cc1ccccc1)C(=O)CNCCCN=C(N)N
- IC50 (Melanocortin receptor 4 [3]): Not Active
- IC50 (Melanocortin receptor 4 [4]): Not Active

Structure (SMILES): CC(C)(C(N)=O)N(Cc1ccccc1)C(=O)CN(CCc1ccccc1)C(=O)CNCCCN=C(N)N
- IC50 (Melanocortin receptor 4 [2]): > 100 µM

Structure (SMILES): C[C@H](c1ccccc1)N(CC(N)=O)C(=O)CN(C(=O)CNCCCNC(=N)N)C(c1ccccc1)c1ccccc1
- IC50 (Melanocortin receptor 4 [1]): 1.9 µM
- IC50 (Melanocortin receptor 4 [5]): 2.1 µM
- IC50 (Melanocortin receptor 3 [6]): 48 µM
- IC50 (Melanocortin receptor 4 [2]): 3.1 µM
- IC50 (Melanocortin receptor 4 [7]): 3.1 µM
- IC50 (Melanocortin receptor 4 [8]): 1.9 µM
- IC50 [9]: 25 µM
- IC50 [10]: 9.1 µM
- IC50 (Melanocortin receptor 3 [11]): > 50 µM

Structure (SMILES): NC(=O)CN(Cc1ccccc1)C(=O)CN(Cc1ccccc1)C(=O)CNCCCN=C(N)N
- IC50 (Melanocortin receptor 4 [1]): > 100 µM
- IC50 (Melanocortin receptor 4 [2]): > 100 µM
